ChEMBL document CHEMBL2390848, “Anticancer effect of altersolanol A, a metabolite produced by the endophytic fungus Stemphylium globuliferum, mediated by its pro-apoptotic and anti-invasive potential via the inhibition of NF-κB activity” (Bioorg Med Chem, 2013)
The source made the active and inactive calls. The rule behind the calls is not given here.

Experiments:
[1] = tested on: K562; experiment: Inhibition of TNFalpha-induced NF-kappa-B transcriptional activity in human K562 cells pretreated with compound at 100 uM for 2 hrs measured 6 hrs post TNFalpha challenge by luciferase reporter gene assay; format: cell-based
[2] = tested on: K562; experiment: Cytotoxicity against human K562 cells at 100 uM after 24 hrs by trypan blue exclusion test; format: functional, cell-based
[3] = (§1) Inhibition of TNFalpha-induced NF-kappa-B transcriptional activity in human K562 cells pretreated with compound for 2 hrs measured 6 hrs post TNFalpha challenge by luciferase reporter gene assay; format: cell-based
[4] = tested on: K562; experiment: as §1; format: cell-based
[5] = tested on: K562; experiment: Cytotoxicity against human K562 cells at 0.5 to 100 uM after 8 to 72 hrs by trypan blue exclusion test; format: functional, cell-based
[6] = tested on: K562; experiment: Cytotoxicity against human K562 cells after 48 hrs by trypan blue exclusion test; format: functional, cell-based; settings: K562, 48 h
[7] = tested on: K562; experiment: Cytotoxicity against human K562 cells after 24 hrs by trypan blue exclusion test; format: functional, cell-based; settings: K562, 24 h
[8] = tested on: K562; experiment: Cell cycle arrest in human K562 cells assessed as accumulation at sub-G1 phase at 4 uM after 48 hrs by flow cytometry relative to untreated control; format: functional
[9] = tested on: A549; experiment: Antiproliferative activity against human A549 cells measured at 6 hrs over 120 hrs by videomicroscopy analysis; format: functional, cell-based
[10] = tested on: K562; experiment: Cell cycle arrest in human K562 cells assessed as accumulation at sub-G1 phase at 4 uM after 72 hrs by flow cytometry relative to untreated control; format: functional
[11] = tested on: K562; experiment: Induction of apoptosis in human K562 cells assessed as reduction in Bcl-xL expression after 16 to 72 hrs by Western blot analysis; format: functional, cell-based
[12] = tested on: K562; experiment: Induction of apoptosis in human K562 cells assessed as cleavage of caspase-9 after 16 to 24 hrs by Western blot analysis; format: functional, cell-based
[13] = tested on: A549; experiment: Antimigratory activity against human A549 cells treated at 25 uM after scratching measured at 6 hrs interval over 120 hrs by scratch-wound assay; format: functional, cell-based
[14] = tested on: K562; experiment: Cell cycle arrest in human K562 cells assessed as accumulation at sub-G1 phase after 16 to 72 hrs by flow cytometry; format: functional, cell-based
[15] = tested on: K562; experiment: Antiproliferative activity against human K562 cells measured at 6 hrs over 120 hrs by videomicroscopy analysis; format: functional, cell-based
[16] = tested on: K562; experiment: Cell cycle arrest in human K562 cells assessed as accumulation at sub-G1 phase at 0.2 to 10 uM by flow cytometry; format: functional, cell-based; settings: TDE = time-dependent effect
[17] = tested on: PBMC; experiment: Effect on metabolism of human PBMCs after 24 hrs by CellTiter-Glo luminescent cell viability assay; format: functional, cell-based
[18] = tested on: K562; experiment: Induction of apoptosis in human K562 cells assessed as cleavage of caspase-3 after 16 to 24 hrs by Western blot analysis; format: functional, cell-based
[19] = tested on: K562; experiment: Induction of apoptosis in human K562 cells after 16 to 72 hrs using annexin V-propidium iodide staining by FACS analysis; format: functional, cell-based
[20] = tested on: K562; experiment: Cell cycle arrest in human K562 cells assessed as accumulation at sub-G1 phase after 24 hrs by flow cytometry relative to untreated control; format: functional
[21] = tested on: K562; experiment: Induction of apoptosis in human K562 cells assessed as reduction in Mcl-1 expression after 16 to 72 hrs by Western blot analysis; format: functional, cell-based
[22] = tested on: A549; experiment: Cytotoxicity against human A549 cells after 24 hrs by XTT assay; format: functional, cell-based; settings: A549, 24 h
[23] = tested on: PBMC; experiment: Cytotoxicity against human PBMCs after 24 hrs by trypan blue exclusion test; format: cell-based
[24] = tested on: K562; experiment: Induction of apoptosis in human K562 cells assessed as reduction in XIAP expression after 16 to 72 hrs by Western blot analysis; format: functional, cell-based
[25] = tested on: K562; experiment: Cell cycle arrest in human K562 cells assessed as accumulation at sub-G1 phase after 16 hrs by flow cytometry relative to untreated control; format: functional

For COc1cc(O)c2c(c1)[C@H](O)[C@H]1C[C@](C)(O)[C@H](O)C[C@@H]1C2=O, the inhibition [1] was “inactive” and the Activity [2] was “inactive”.

For COc1cc(OC(C)=O)c2c(c1)C(=O)C1=C(C2=O)[C@H](OC(C)=O)[C@@H](OC(C)=O)[C@@](C)(O)[C@@H]1OC(C)=O, the IC50 [3] was 4.64 µM, the inhibition [4] was “Dose-dependent effect” and the Activity [5] was “Active”. The EC50 [6] was 2.5 µM and the EC50 [7] was 4 µM.

With COc1cc(O)c2c(c1)[C@H](O)[C@@H]1[C@@H](C2=O)[C@H](O)[C@@H](O)[C@@](C)(O)[C@@H]1O the inhibition [1] was “inactive” and the Activity [2] was “inactive”.

With COc1cc(O)c2c(c1)C(=O)C1=C(C2=O)[C@H](O)[C@@H](O)[C@@](C)(O)[C@@H]1O [ALTERSOLANOL A] the Activity [8] was 65%, the EC50 [9] was over 2 µM and the Activity [10] was 65%. For the same compound, the IC50 [3] was 0.8 µM, the inhibition [4] was “Dose-dependent effect” and the Activity [11] was “Dose-dependent effect”. For the same compound, the Activity [12] was “Dose-dependent effect”, the Activity [13] was “Active” and the Activity [14] was “Dose-dependent effect”. The EC50 [15] was over 1 µM, the Activity [5] was “Active” and the Activity [16] was “tde”. The EC50 [17] was 4.2 µM, the EC50 [6] was 2.5 µM and the Activity [18] was “Dose-dependent effect”. The Activity [19] was “Dose-dependent effect”, the Activity [20] was 40% and the Activity [21] was “Dose-dependent effect”. For the same compound, the EC50 [22] was 29.5 µM, the Activity [23] was “Non-toxic” and the EC50 [7] was 4 µM. The Activity [24] was “Dose-dependent effect” and the Activity [25] was 40%.
